Reference: ChEMBL document CHEMBL4359842 (J Med Chem, 2019)
Calls of active or inactive are those of the source. The rule behind the calls is not given here.

Key:
[1] = biological target: Mitogen-activated protein kinase 10 (Homo sapiens, UniProt P53779); test: Inhibition of recombinant human full-length JNK3 at 10 uM using ATF2 as substrate measured after 40 mins in presence of [gamma33P]ATP by scintillation counting analysis relative to control
[2] = biological target: Mitogen-activated protein kinase 8 (Homo sapiens, UniProt P45983); test: Inhibition of human JNK1alpha1 using ATF2 as substrate measured after 40 mins in presence of [gamma33P]ATP by scintillation counting analysis
Mitogen-activated protein kinase 8, sequence (P45983 whole entry): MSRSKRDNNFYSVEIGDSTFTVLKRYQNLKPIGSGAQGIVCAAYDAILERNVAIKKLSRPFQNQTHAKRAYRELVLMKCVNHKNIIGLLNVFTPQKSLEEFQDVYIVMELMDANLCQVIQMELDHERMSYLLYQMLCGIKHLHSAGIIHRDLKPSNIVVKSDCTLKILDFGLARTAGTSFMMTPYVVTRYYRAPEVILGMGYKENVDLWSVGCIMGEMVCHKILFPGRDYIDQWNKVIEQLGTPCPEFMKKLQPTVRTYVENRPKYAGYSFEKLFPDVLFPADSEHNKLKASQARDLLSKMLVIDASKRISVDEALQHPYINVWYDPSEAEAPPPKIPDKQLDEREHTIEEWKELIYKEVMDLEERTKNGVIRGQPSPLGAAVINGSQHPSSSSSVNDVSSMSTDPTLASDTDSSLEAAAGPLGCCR

[3] = biological target: Mitogen-activated protein kinase 9 (Homo sapiens, UniProt P45984); test: Inhibition of human JNK2alpha2 using ATF2 as substrate measured after 40 mins in presence of [gamma33P]ATP by scintillation counting analysis
Mitogen-activated protein kinase 9, sequence (P45984 whole entry, the tested form may be a part): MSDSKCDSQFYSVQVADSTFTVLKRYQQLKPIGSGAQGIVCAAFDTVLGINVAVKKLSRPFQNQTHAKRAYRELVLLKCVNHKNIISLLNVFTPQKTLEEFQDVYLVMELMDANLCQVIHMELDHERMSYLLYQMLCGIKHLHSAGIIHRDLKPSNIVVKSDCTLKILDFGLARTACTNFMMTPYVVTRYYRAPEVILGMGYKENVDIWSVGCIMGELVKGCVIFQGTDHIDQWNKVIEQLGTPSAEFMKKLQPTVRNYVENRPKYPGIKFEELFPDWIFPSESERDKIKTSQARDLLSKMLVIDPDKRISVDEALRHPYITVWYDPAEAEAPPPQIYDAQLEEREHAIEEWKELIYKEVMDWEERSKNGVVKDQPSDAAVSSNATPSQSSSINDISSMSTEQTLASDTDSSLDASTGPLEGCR

SH-SY5Y [4] = test: Neuroprotective activity against amyloid beta (25 to 35 residues)-induced cell death in human SH-SY5Y cells assessed as increase in cell viability at 1 to 10 uM preincubated for 1 hr followed by amyloid beta (25 to 35 residues) addition and measured after 72 hrs by MTT assay; assay type: functional, cell-based
SH-SY5Y [5] = test: Effect on cell proliferation in human SH-SY5Y cells at 1 to 10 uM measured after 1 hr by MTT assay; assay type: ADME, cell-based
Mus musculus [6] = test: Improvement in spatial memory impairment in APPswe/PS1dE9 double mutant-transgenic mouse model assessed as decrease in escape latency at 15 to 30 mg/kg, ip administered once daily for 12 weeks measured 24 hrs after training trial by morris water maze test; assay type: functional, organism-based
Mus musculus [7] = test: Improvement in spatial memory impairment in APPswe/PS1dE9 double mutant-transgenic mouse model assessed as decrease in exploration distance at 15 to 30 mg/kg, ip administered once daily for 12 weeks measured 24 hrs after training trial by morris water maze test; assay type: functional, organism-based
Mus musculus [8] = test: Improvement in spatial memory impairment in APPswe/PS1dE9 double mutant-transgenic mouse model assessed as increase in duration of time spent in target quadrant at 15 to 30 mg/kg, ip administered once daily for 12 weeks measured 24 hrs after training trial by morris water maze test; assay type: functional, organism-based
[9] = Toxicity in APPswe/PS1dE9 double mutant-transgenic mouse model assessed as effect on swimming speed at 15 to 30 mg/kg, ip administered once daily for 12 weeks measured 48 hrs after training trial by morris water maze test; assay type: organism-based; conditions: in vivo
[10] = Toxicity in APPswe/PS1dE9 double mutant-transgenic mouse model assessed as effect on time to reach target quadrant at 15 to 30 mg/kg, ip administered once daily for 12 weeks measured 48 hrs after training trial by morris water maze test; assay type: organism-based; conditions: in vivo
Mus musculus [11] = test: Effect on acquisition latency time in APPswe/PS1dE9 double mutant-transgenic mouse model at 15 to 30 mg/kg, ip administered once daily for 12 weeks measured post-last dose by step-through passive avoidance test; assay type: ADME, organism-based; conditions: in vivo, 2016 h
Mus musculus [12] = test: Improvement in spatial memory impairment in APPswe/PS1dE9 double mutant-transgenic mouse model assessed as increase in retention latency time at 15 to 30 mg/kg, ip administered once daily for 12 weeks measured post-last dose by step-through passive avoidance test; assay type: functional, organism-based
Mus musculus [13] = test: Improvement in spatial memory impairment in ip dosed APPswe/PS1dE9 double mutant-transgenic mouse model assessed as decrease in number of fibrillar plaque in cortex administered once daily for 12 weeks measured post-last dose by thioflavin S staining-based fluorescence microscopic analysis; assay type: functional, organism-based
Mus musculus [14] = test: (§1) Improvement in spatial memory impairment in ip dosed APPswe/PS1dE9 double mutant-transgenic mouse model assessed as decrease in area occupied by fibrillar plaque in cortex administered once daily for 12 weeks measured post-last dose by thioflavin S staining-based fluorescence microscopic analysis; assay type: functional, organism-based
Mus musculus [15] = test: Improvement in spatial memory impairment in ip dosed APPswe/PS1dE9 double mutant-transgenic mouse model assessed as decrease in number of diffused plaque in hippocampus administered once daily for 12 weeks measured post-last dose by thioflavin S staining-based fluorescence microscopic analysis; assay type: functional, organism-based
Mus musculus [16] = test: as §1, with “hippocampus” for “cortex”; assay type: functional, organism-based
Mus musculus [17] = test: In vivo inhibition of JNK in APPswe/PS1dE9 double mutant-transgenic mouse model assessed as reduction in APP phosphorylation at Thr668 residue in cortex at 30 mg/kg, ip administered once daily for 12 weeks measured post-last dose by Western blot analysis; assay type: functional, organism-based
Mus musculus [18] = test: In vivo inhibition of […] phosphorylation in hippocampus of APPswe/PS1dE9 double mutant-transgenic mouse model at 30 mg/kg, ip administered once daily for 12 weeks measured post-last dose by Western blot analysis; assay type: functional, organism-based
Mus musculus [19] = test: In vivo inhibition of JNK in APPswe/PS1dE9 double mutant-transgenic mouse model assessed as reduction in APP phosphorylation at Thr668 residue in hippocampus at 30 mg/kg, ip administered once daily for 12 weeks measured post-last dose by Western blot analysis; assay type: functional, organism-based
Mus musculus [20] = test: In vivo inhibition of JNK in APPswe/PS1dE9 double mutant-transgenic mouse model assessed as reduction in Tau phosphorylation at Ser235 residue in hippocampus at 30 mg/kg, ip administered once daily for 12 weeks measured post-last dose by Western blot analysis; assay type: functional, organism-based
[21] = Mean residence time in APPswe/PS1dE9 double mutant-transgenic mouse at 3 mg/kg, iv administered as single dose by LC-MS/MS analysis; assay type: ADME, organism-based; conditions: in vivo
[22] = Tmax in APPswe/PS1dE9 double mutant-transgenic mouse at 30 mg/kg, ip administered as single dose by LC-MS/MS analysis; assay type: ADME, organism-based; conditions: in vivo
[23] = Cmax in APPswe/PS1dE9 double mutant-transgenic mouse at 30 mg/kg, ip administered as single dose by LC-MS/MS analysis; assay type: ADME, organism-based; parameters: dose 30 mg/kg, route intraperitoneal; conditions: in vivo
[24] = Clearance in APPswe/PS1dE9 double mutant-transgenic mouse at 30 mg/kg, ip administered as single dose by LC-MS/MS analysis; assay type: ADME, organism-based; conditions: in vivo
[25] = Plasma concentration in APPswe/PS1dE9 double mutant-transgenic mouse at 30 mg/kg, ip administered as single dose measured after 0.5 hrs by LC-MS/MS analysis; assay type: ADME, organism-based
[26] = Plasma concentration in APPswe/PS1dE9 double mutant-transgenic mouse at 30 mg/kg, ip administered as single dose measured after 2 hrs by LC-MS/MS analysis; assay type: ADME, organism-based
[27] = Plasma concentration in APPswe/PS1dE9 double mutant-transgenic mouse at 30 mg/kg, ip administered as single dose measured after 8 hrs by LC-MS/MS analysis; assay type: ADME, organism-based
[28] = Drug level in APPswe/PS1dE9 double mutant-transgenic mouse brain at 30 mg/kg, ip administered as single dose measured after 2 hrs by LC-MS/MS analysis; assay type: ADME, organism-based; conditions: read-out: Drug uptake
[29] = Drug level in APPswe/PS1dE9 double mutant-transgenic mouse brain at 30 mg/kg, ip administered as single dose measured after 8 hrs by LC-MS/MS analysis; assay type: ADME, organism-based; conditions: read-out: Drug uptake
[30] = Ratio of drug level in APPswe/PS1dE9 double mutant-transgenic mouse brain to plasma at 30 mg/kg, ip administered as single dose measured after 0.5 hrs by LC-MS/MS analysis; assay type: ADME, organism-based; conditions: read-out: BPR

Mitogen-activated protein kinase 10, sequence (P53779 whole entry): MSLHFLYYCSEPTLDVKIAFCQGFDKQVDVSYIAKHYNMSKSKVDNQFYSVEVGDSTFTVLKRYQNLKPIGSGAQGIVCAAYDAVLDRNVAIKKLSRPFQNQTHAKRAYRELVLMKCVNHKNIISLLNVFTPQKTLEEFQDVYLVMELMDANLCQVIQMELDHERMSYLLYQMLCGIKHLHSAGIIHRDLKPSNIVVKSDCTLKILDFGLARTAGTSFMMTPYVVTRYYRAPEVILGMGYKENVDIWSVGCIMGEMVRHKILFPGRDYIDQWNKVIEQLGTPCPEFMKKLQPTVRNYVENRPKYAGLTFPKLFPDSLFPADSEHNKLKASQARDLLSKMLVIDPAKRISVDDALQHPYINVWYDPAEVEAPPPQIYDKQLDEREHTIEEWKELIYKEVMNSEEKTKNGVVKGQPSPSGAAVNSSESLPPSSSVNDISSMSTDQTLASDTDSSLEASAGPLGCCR

O=C1N/C(=N/c2ccccc2Cl)S/C1=C1\C(=O)Nc2ccc(F)cc21
inhibition [1]: 99%
IC50 [2]: > 100 µM
IC50 [3]: > 100 µM
Activity (SH-SY5Y [4]): Active
Activity (SH-SY5Y [5]): Non-Toxic
Activity (Mus musculus [6]): Active
Activity (Mus musculus [7]): Active
Activity (Mus musculus [8]): Active
Activity [9]: Non-Toxic
Activity [10]: Non-Toxic
Activity (Mus musculus [11]): Non-Toxic
Activity (Mus musculus [12]): Active
Activity (Mus musculus [13]): Dose-dependent effect
Activity (Mus musculus [14]): Dose-dependent effect
Activity (Mus musculus [15]): Dose-dependent effect
Activity (Mus musculus [16]): Dose-dependent effect
inhibition (Mus musculus [17]): Active
inhibition (Mus musculus [18]): Active
inhibition (Mus musculus [19]): Active
inhibition (Mus musculus [20]): Active
MRT [21]: 1.61 h
Tmax [22]: 24 min
Cmax [23]: 19200 ng/mL
CL/F [24]: 26.5 mL/min/kg
concentration at 0.5 h [25]: 20600 ng/mL
concentration at 2 h [26]: 1200 ng/mL
concentration at 8 h [27]: 78.1 ng/mL
concentration at 2 h [28]: 158 ng/g
concentration at 8 h [29]: 30.7 ng/g
Kp at 0.5 h [30]: 0.0024
